One may read the EC50 as the concentration giving half of the maximal effect. A word on the Emax: it is the size of the effect at its maximum, as opposed to the concentration needed.

The results in this text go back to patent publication US11851406B2, “Positive allosteric modulators of the muscarinic acetylcholine receptor M1” (Vanderbilt University, priority 2018, dated 2023).

Test [1] addresses T1, human mAChR M1 (Homo sapiens, UniProt P11229).
T1 sequence (P11229 1-460): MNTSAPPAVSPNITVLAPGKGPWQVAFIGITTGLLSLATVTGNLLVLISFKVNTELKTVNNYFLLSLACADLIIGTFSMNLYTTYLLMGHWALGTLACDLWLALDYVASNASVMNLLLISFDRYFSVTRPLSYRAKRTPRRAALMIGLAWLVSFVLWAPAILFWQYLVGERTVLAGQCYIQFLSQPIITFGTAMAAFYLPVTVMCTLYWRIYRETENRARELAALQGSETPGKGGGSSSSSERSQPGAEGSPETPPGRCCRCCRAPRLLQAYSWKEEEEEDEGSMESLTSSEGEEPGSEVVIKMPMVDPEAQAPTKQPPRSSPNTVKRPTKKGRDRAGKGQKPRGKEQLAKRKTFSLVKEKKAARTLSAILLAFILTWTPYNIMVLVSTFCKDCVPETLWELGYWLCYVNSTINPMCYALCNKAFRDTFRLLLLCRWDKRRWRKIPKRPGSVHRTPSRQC
Nature of the test: mAChR M1 cell-based functional assay (calcium mobilization), PAM activity: increase in the EC20 acetylcholine response. Conditions: CHO-K1 cells expressing hM1; calcium flux (Fluo-4); potentiation of EC20 acetylcholine response. The source says: (§1) Chinese hamster ovary (CHO-K1) cells stably expressing rat (r)M1 were purchased from the American Type Culture Collection and cultured according to their indicated protocol. CHO cells stably expressing human (h)M2, hM3, and hM5 were described previously (Levey, et al., 1991); hM1 and hM4 cDNAs were purchased from Missouri S&T cDNA Resource; rM4 cDNA was provided by T. I. Bonner (National Institutes of Health, Bethesda, Md.). rM2 and rM3 were cloned from a rat brain cDNA library and sequence verified. hM1, rM2, rM3, hM4, and rM4 cDNAs were used to stably transfect CHO-K1 cells purchased from the American Type Culture Collection using Lipofectamine2000. To make stable rM2, hM2, rM3, hM4, and rM4 cell lines for use in calcium mobilization assays, these cells also were stably transfected with a chimeric G-protein (Gqi5) (provided by B. R. Conklin, University of California, San Francisco) using Lipofectamine 2000. rM1, hM1, rM3, hM3, rM5, and hM5 cells were grown in Ham's F-12 medium containing 10% heat-inactivated fetal bovine serum (FBS), 20 mM HEPES, and 50 μg/mL G418 sulfate. rM2-Gqi5, hM2-Gqi5, and hM4-Gqi5 cells were grown in the same medium also containing 500 μg/mL Hygromycin B. Stable rM4-Gqi5 cells were grown in DMEM containing 10% heat-inactivated FBS, 20 mM HEPES, 400 μg/mL G418 sulfate, and 500 μg/mL Hygromycin B.
(§2) For high throughput measurement of agonist-evoked increases in intracellular calcium, CHO-K1 cells stably expressing muscarinic receptors were plated in growth medium lacking G418 and hygromycin at 15,000 cells/20 μL/well in Greiner 384-well black-walled, tissue culture (TC)-treated, clear-bottom plates (VWR). Cells were incubated overnight at 37° C. and 5% CO2. The next day, cells were washed using an ELX 405 (BioTek) with four washes (80 μL) of assay buffer then aspirated to 20 μL. Next, 20 μL of 16 μM Fluo-4/acetoxymethyl ester (Invitrogen, Carlsbad, Calif.) prepared as a 2.3 mM stock in DMSO and mixed in a 1:1 ratio with 10% (w/v) Pluronic F-127 and diluted in assay buffer was added to the wells and the cell plates were incubated for 50 min at 37° C. and 5% CO2. Dye was removed by washing with the ELX 405 (four 80 μL washes of assay buffer) then aspirated to 20 μL. Compound master plates were formatted in an 11 point CRC format (1:3 dilutions) in 100% DMSO with a starting concentration of 10 mM using the BRAVO liquid handler (Agilent). Test compound CRCs were then transferred to daughter plates (240 nL) using the Echo acoustic plate reformatter (Labcyte, Sunnyvale, Calif.) and then diluted into assay buffer (40 μL) to a 2× stock using a Thermo Fisher Combi (Thermo Fisher Scientific, Waltham, Mass.).
(§3) Calcium flux was measured using the Functional Drug Screening System (FDSS) 6000 (Hamamatsu Corporation, Tokyo, Japan) as an increase in the fluorescent static ratio. Compounds were applied to cells (20 μL, 2×) using the automated system of the FDSS 6000 at 4 s into the 300 s protocol and the data were collected at 1 Hz. At 144 s into the 300 s protocol, 10 μL of an EC20 concentration of the muscarinic receptor agonist acetylcholine was added (5×), followed by the addition of 12 μL an EC80 concentration of acetylcholine at the 230 s time point (5×). Agonist activity was analyzed as a concentration-dependent increase in calcium mobilization upon compound addition. Emax values for agonist activity are expressed relative to the maximum for acetylcholine. Positive allosteric modulator activity was analyzed as a concentration-dependent increase in the EC20 acetylcholine response. Antagonist activity was analyzed as a concentration-dependent decrease in the EC80 acetylcholine response. Concentration-response curves were generated using a four-parameter logistical equation in XLfit curve fitting software (IDBS, Bridgewater, N.J.) for Excel (Microsoft, Redmond, Wash.) or Prism (GraphPad Software, Inc., San Diego, Calif.).
In general terms: A change in cytosolic calcium serves as a functional read-out for many receptors and channels.

Test [2] addresses T1, human mAChR M1. Briefly: mAChR M1 cell-based functional assay (calcium mobilization), agonist activity upon compound addition alone. As to conditions: CHO-K1 cells expressing hM1; for EC50: calcium mobilization upon compound addition, no acetylcholine; for Emax: compound alone, relative to the maximum for acetylcholine.
Description: as §1, §2, §3

Consider `Cc1c(Cc2ccc(-c3ccn(C)n3)cc2)cc(C(=O)NC2CCOCC2)nc1-c1ccn(C)n1` [Compound 1, 5-methyl-6-(1-methyl-1H-pyrazol-3-yl)-4-(4-(1-methyl-1H-pyrazol-3-yl)benzyl)-N-(tetrahydro-2H-pyran-4-yl)picolinamide], for which the EC50 is 8.72 µM in test [1] and above 10 µM in test [2]. In addition, the Emax in test [1] was 85%; in test [2], below 5%.

Take `Cc1c(Cc2ccc(-c3ccn(C)n3)cc2)cc(C(=O)N[C@H]2CCOC[C@@H]2O)nc1-n1cccn1` [Compound 2, N-((3R,4S)-3-hydroxytetrahydro-2H-pyran-4-yl)-5-methyl-4-(4-(1-methyl-1H-pyrazol-3-yl)benzyl)-6-(1H-pyrazol-1-yl)picolinamide]: the EC50 in test [1] was found to be 0.317 µM; in test [2], 7.15 µM. Also, the Emax in test [1] was determined as 78%; in test [2] it was 25%.

As to `Cn1cc(-c2ccc(Cc3cc(C(=O)N[C@H]4CCCC[C@@H]4O)nc(-c4ccn(C)n4)c3)cn2)cn1` [Compound 3, N-((1S,2S)-2-hydroxycyclohexyl)-6-(1-methyl-1H-pyrazol-3-yl)-4-((6-(1-methyl-1H-pyrazol-4-yl)pyridin-3-yl)methyl)picolinamide], the EC50 in test [1] is 4 µM; in test [2] it was above 10 µM. For the same molecule, the Emax in test [1] was 90%; in test [2], below 5%.

As to `Cn1cc(-c2ccc(Cc3cc(C(=O)NC4CCOCC4)nc(-c4ccn(C)n4)c3)cn2)cn1` [Compound 4, 6-(1-methyl-1H-pyrazol-3-yl)-4-((6-(1-methyl-1H-pyrazol-4-yl)pyridin-3-yl)methyl)-N-(tetrahydro-2H-pyran-4-yl)picolinamide], the figures for the Emax in test [1] and in test [2] were 53% and below 5%, respectively. For the same molecule, in test [2], the EC50 is above 10 µM.

As for `Cn1cc(-c2ccc(Cc3cc(C(=O)NC4CC5(COC5)C4)nc(-c4ccn(C)n4)c3)cn2)cn1` [Compound 5, 6-(1-methyl-1H-pyrazol-3-yl)-4-((6-(1-methyl-1H-pyrazol-4-yl)pyridin-3-yl)methyl)-N-(2-oxaspiro[3.3]heptan-6-yl)picolinamide], in test [1], the Emax came to 52%. Moreover, in test [2], the EC50 was above 10 µM and the maximal effect (Emax) was below 5%.

Regarding `Cn1cc(-c2ccc(Cc3cc(C(=O)N[C@H]4CCC[C@@H]4O)nc(-c4ccn(C)n4)c3)cn2)cn1` [Compound 6, N-((1S,2S)-2-hydroxycyclopentyl)-6-(1-methyl-1H-pyrazol-3-yl)-4-((6-(1-methyl-1H-pyrazol-4-yl)pyridin-3-yl)methyl)picolinamide], the Emax in test [1] is 67%; in test [2] it was below 5%. For the same molecule, in test [2], the concentration giving a half-maximal response (EC50) was above 10 µM.

In the case of `Cn1cc(-c2ccc(Cc3cc(C(=O)NC[C@@H]4CCCO4)nc(-c4ccn(C)n4)c3)cn2)cn1` [Compound 7, (S)-6-(1-methyl-1H-pyrazol-3-yl)-4-((6-(1-methyl-1H-pyrazol-4-yl)pyridin-3-yl)methyl)-N-((tetrahydrofuran-2-yl)methyl)picolinamide], the Emax in test [1] is 38%. Also, in test [2], the concentration giving a half-maximal response (EC50) is above 10 µM and the Emax is below 5%.

For the molecule `Cn1cc(-c2ccc(Cc3cc(C(=O)NC4CCOCC4(C)C)nc(-c4ccn(C)n4)c3)cn2)cn1` (stereo not drawn) [Compound 8, N-(3,3-dimethyltetrahydro-2H-pyran-4-yl)-6-(1-methyl-1H-pyrazol-3-yl)-4-((6-(1-methyl-1H-pyrazol-4-yl)pyridin-3-yl)methyl)picolinamide], in test [1], the EC50 is 8.01 µM and the Emax was 75%. Besides, in test [2], the EC50 was above 10 µM and the maximum response (Emax) was below 5%.

Take `Cc1c(Cc2ccc(-c3ccn(C)n3)cc2)cc(C(=O)N[C@H]2CCOC[C@@H]2O)nc1-c1ccn(C)n1` [Compound 9, N-((3R,4S)-3-hydroxytetrahydro-2H-pyran-4-yl)-5-methyl-6-(1-methyl-1H-pyrazol-3-yl)-4-(4-(1-methyl-1H-pyrazol-3-yl)benzyl)picolinamide]: in test [1], the EC50 turned out to be 0.542 µM and the Emax was 86%. In test [2], the EC50 is 9.81 µM and the Emax turned out to be 18%.

Take `Cc1c(Cc2ccc(-c3ccn(C)n3)cc2)cc(C(=O)N[C@H]2CCCC[C@@H]2O)nc1-c1ccn(C)n1` [Compound 10, N-((1S,2S)-2-hydroxycyclohexyl)-5-methyl-6-(1-methyl-1H-pyrazol-3-yl)-4-(4-(1-methyl-1H-pyrazol-3-yl)benzyl)picolinamide]: the values for the EC50 in test [1] and in test [2] were 0.91 µM and at least 10 µM, respectively. Moreover, the results for the Emax in test [1] and in test [2] were 86% and 13%, respectively.

As to `Cc1c(Cc2ccc(-c3ccn(C)n3)cc2)cc(C(=O)NC2CC3(COC3)C2)nc1-c1ccn(C)n1` [Compound 11, 5-methyl-6-(1-methyl-1H-pyrazol-3-yl)-4-(4-(1-methyl-1H-pyrazol-3-yl)benzyl)-N-(2-oxaspiro[3.3]heptan-6-yl)picolinamide], in test [1], the EC50 stood at 4.72 µM and the Emax was 88%. Also, in test [2], the EC50 was above 10 µM and the Emax is below 5%.

Consider `Cc1c(Cc2ccc(-c3ccn(C)n3)cc2)cc(C(=O)N[C@H]2CCC[C@@H]2O)nc1-c1ccn(C)n1` [Compound 12, N-((1S,2S)-2-hydroxycyclopentyl)-5-methyl-6-(1-methyl-1H-pyrazol-3-yl)-4-(4-(1-methyl-1H-pyrazol-3-yl)benzyl)picolinamide], for which the EC50 in test [1] was 1.97 µM; in test [2], above 10 µM. Further, the Emax in test [1] was determined as 86%; in test [2], 6%.

For `Cc1c(Cc2ccc(-c3ccn(C)n3)cc2)cc(C(=O)N[C@H]2CC[C@@H]2O)nc1-c1ccn(C)n1` [Compound 13, N-((1S,2S)-2-hydroxycyclobutyl)-5-methyl-6-(1-methyl-1H-pyrazol-3-yl)-4-(4-(1-methyl-1H-pyrazol-3-yl)benzyl)picolinamide], in test [1], the EC50 turned out to be 7.99 µM and the Emax worked out at 80%. In addition, in test [2], the concentration for a half-maximal effect (EC50) was above 10 µM and the Emax was below 5%.

As for `Cc1c(Cc2ccc(-c3ccn(C)n3)cc2)cc(C(=O)NCC2CCOCC2)nc1-c1ccn(C)n1` [Compound 14, 5-methyl-6-(1-methyl-1H-pyrazol-3-yl)-4-(4-(1-methyl-1H-pyrazol-3-yl)benzyl)-N-((tetrahydro-2H-pyran-4-yl)methyl)picolinamide], the results for the Emax in test [1] and in test [2] were 74% and below 5%, respectively. Further, the EC50 in test [2] was above 10 µM.
